Results published in patent publication US7262280B1, “G-protein fusion receptors and constructs encoding same” (NPS Pharmaceuticals, Inc., priority 1998, dated 2007).

Columns and labels:
Format in all cases: cell-based
CaR/mGluR2*Gqi5 = molecular target: T1, CaR/mGluR2*Gqi5 (Homo sapiens, UniProt P41180); test: Calcium-activated chloride current in Xenopus oocytes injected with G-protein fusion receptor cRNA; settings: 100 μM, Xenopus laevis oocytes, holding −60 mV, FIG. 15
T1 construct: expressed in transfected cells; host or cells: Xenopus laevis oocytes injected with fusion receptor cRNA
T1 sequence (P41180 with tags, fused parts or gaps): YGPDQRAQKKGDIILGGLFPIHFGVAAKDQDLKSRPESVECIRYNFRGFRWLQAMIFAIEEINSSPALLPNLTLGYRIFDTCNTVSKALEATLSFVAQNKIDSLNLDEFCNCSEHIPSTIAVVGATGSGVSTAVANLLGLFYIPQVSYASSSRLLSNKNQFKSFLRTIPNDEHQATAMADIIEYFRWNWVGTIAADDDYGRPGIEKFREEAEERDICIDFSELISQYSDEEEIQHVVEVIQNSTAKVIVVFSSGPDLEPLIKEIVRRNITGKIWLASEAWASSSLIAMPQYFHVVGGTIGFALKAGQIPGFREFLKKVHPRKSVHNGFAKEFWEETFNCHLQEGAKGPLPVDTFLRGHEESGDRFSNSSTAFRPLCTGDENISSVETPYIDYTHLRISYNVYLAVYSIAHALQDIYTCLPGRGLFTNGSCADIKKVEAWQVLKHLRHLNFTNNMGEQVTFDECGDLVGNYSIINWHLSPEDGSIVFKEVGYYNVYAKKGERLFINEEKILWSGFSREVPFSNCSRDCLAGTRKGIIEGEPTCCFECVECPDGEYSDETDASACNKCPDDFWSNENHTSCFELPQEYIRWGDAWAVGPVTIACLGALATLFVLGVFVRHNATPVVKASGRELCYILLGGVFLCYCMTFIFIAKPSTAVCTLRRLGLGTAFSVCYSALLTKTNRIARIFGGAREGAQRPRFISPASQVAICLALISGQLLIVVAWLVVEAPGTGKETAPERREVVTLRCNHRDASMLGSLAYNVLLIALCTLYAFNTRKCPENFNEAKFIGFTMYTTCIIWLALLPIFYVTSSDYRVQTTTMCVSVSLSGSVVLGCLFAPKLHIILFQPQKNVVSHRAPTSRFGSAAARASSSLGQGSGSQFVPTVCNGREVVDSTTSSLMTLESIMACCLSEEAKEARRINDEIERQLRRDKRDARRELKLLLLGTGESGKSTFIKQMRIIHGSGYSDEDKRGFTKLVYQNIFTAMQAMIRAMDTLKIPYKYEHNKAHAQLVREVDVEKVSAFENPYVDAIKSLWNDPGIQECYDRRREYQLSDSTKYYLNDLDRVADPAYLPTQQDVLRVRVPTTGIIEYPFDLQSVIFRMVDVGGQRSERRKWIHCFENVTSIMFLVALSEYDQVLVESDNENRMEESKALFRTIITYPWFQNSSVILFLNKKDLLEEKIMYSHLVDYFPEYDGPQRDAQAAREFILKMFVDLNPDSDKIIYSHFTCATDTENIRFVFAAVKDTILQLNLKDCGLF
Procedure: (§1) The different G-protein fusion receptors used in this example were as follows: mGluR2//CaR*Gqi5 (SEQ. ID. NO. 37), CaR/mGluR2*Gqi5 (SEQ. ID. NO. 33), and mGluR8//CaR*Gqi5 SEQ. ID. NO. 41.
(§2) Oocytes suitable for injection were obtained from adult female Xenopus laevis toads using procedures described in C. J. Marcus-Sekura and M. J. M. Hitchcock, Methods in Enzymology, Vol. 152 (1987).
(§3) Receptor fusion cRNAs were dissolved in water and 50 nl (12.5 ng/oocyte) were injected into individual oocytes. Following injection, oocytes were incubated at 16° C. in MBS containing 1 mM CaCl2 for two to seven days prior to electrophysiological recording.
(§4) Test substances were applied by superfusion at a flow rate of about 5 ml/minute. Receptor fusion activation was determined by measuring the increase in calcium-activated chloride current (ICl). Increases in ICl were quantified by measuring the peak inward current stimulated by activating agent, relative to the holding current at −60 mV. […] Application of 100 μM Gd^3+ activated the CaR/mGluR2*Gqi5.

[1] = molecular target: T2, chimeric CaR/GABABR2 (CaR extracellular and transmembrane domains, and intracellular GABABR2 domain) (Homo sapiens, UniProt O75899+P41180); test: Calcium-activated chloride current in Xenopus oocytes co-injected with chimeric CaR/GABABR2 RNA and Gα15 RNA; settings: 100 μM, voltage-clamped, 72-hour incubation, FIG. 8
T2 construct: chimeric CaR/GABABR2 (CaR extracellular and transmembrane domains, and intracellular GABABR2 domain); GABABR2 intracellular domain (fusion partner replacing the CaR tail); expressed in transfected cells; host or cells: Xenopus oocytes injected with in vitro-transcribed RNA
T2 sequence (P41180+O75899 with tags, fused parts or gaps): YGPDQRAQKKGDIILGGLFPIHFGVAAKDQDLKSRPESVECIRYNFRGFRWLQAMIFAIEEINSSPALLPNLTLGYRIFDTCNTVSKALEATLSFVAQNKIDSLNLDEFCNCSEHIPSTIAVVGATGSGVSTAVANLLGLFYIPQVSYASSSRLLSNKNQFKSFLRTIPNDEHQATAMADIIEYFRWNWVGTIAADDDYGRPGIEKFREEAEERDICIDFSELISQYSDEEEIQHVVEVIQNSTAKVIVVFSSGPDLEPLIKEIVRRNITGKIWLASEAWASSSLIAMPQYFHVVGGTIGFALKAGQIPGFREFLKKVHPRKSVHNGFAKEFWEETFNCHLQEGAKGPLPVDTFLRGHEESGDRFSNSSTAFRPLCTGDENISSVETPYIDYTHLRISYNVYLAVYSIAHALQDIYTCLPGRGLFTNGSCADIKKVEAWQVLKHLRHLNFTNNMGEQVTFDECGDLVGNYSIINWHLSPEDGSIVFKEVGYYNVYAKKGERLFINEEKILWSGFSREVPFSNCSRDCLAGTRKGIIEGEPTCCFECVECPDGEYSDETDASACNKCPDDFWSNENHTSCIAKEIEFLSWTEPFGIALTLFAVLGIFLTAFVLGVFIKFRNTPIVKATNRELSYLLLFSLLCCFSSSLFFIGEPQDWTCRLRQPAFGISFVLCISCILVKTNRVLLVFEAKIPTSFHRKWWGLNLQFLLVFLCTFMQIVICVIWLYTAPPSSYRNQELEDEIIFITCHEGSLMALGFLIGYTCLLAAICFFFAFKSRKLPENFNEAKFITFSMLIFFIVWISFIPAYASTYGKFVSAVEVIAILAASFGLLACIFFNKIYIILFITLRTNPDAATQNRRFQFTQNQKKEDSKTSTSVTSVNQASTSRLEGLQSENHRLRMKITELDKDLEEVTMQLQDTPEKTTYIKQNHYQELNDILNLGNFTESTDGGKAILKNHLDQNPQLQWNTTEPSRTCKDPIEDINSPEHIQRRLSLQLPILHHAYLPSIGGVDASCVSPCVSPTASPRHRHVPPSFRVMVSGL
Procedure: FIG. 8 illustrates the ability of a chimeric CaR/GABABR2 (CaR extracellular and transmembrane domains, and intracellular GABABR2 domain) to transduce a signal. Signal production was measured by detecting an increase in the calcium-activated chloride current. The line in the middle of the increase signifies a wash step.
In vitro-transcribed RNA (7 ng) encoding a chimeric CaR/GABABR2 (CaR extracellular and transmembrane domains, and intracellular GABABR2 domain) was co-injected with in vitro-transcribed RNA (2 ng) encoding Gα15 into Xenopus oocytes. Following a 72-hour incubation, the oocytes were voltage-clamped using standard electrophysiological techniques (B. Hille, Ionic Channels of Exictable Membranes, pp. 30-33, Sinauer Associates, Inc., Sunderland, Ma., 1992). Activation of the chimeric receptor was detected by increases in the calcium-activated chloride current.
In this assay, the Gα15 subunit acts to promote signal transduction through intracellular pathways that mobilize intracellular Ca^++.

mGluR2//CaR*Gαqi5 = mGluR2//CaR*Gαqi5 (Homo sapiens, UniProt Q14416, L8P); test: Calcium-activated chloride current in Xenopus oocytes injected with G-protein fusion receptor cRNA; settings: 100 μM, Xenopus laevis oocytes, holding −60 mV, FIG. 15
mGluR2//CaR*Gαqi5, sequence (Q14416 with tags, fused parts or gaps L8P): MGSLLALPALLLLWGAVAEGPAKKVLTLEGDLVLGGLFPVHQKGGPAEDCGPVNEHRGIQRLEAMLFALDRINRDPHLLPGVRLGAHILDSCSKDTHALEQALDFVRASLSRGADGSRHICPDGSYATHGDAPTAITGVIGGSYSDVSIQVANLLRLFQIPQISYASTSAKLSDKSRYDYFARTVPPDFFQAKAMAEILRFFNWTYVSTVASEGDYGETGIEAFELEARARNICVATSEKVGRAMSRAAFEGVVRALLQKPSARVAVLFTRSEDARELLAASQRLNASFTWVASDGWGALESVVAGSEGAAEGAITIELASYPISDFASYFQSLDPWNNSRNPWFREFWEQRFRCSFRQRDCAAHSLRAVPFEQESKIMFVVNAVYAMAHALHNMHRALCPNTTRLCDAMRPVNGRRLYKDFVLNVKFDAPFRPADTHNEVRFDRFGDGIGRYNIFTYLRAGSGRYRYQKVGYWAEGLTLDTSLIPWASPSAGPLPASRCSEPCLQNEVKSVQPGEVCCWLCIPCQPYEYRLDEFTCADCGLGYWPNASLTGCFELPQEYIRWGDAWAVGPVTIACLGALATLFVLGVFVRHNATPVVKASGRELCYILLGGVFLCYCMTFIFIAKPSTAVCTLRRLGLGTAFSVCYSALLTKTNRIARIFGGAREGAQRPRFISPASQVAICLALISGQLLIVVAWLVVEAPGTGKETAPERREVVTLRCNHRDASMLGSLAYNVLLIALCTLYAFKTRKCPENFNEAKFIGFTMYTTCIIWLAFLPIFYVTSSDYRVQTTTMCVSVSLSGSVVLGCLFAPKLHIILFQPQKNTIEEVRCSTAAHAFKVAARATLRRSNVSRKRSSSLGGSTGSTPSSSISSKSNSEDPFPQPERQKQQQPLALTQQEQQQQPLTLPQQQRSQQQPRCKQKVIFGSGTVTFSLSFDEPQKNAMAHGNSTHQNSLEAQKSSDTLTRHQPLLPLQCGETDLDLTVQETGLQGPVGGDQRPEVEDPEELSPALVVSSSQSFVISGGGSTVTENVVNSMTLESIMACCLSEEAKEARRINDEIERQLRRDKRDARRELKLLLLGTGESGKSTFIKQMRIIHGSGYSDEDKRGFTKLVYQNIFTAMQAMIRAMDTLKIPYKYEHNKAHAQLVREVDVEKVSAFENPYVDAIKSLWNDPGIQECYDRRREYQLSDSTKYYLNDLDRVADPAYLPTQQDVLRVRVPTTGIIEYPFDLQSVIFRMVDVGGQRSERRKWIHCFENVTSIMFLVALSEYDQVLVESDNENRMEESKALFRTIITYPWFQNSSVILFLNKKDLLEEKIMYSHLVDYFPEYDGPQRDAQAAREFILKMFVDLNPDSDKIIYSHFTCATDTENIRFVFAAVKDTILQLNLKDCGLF

mGluR8//CaR*Gαqi5 = molecular target: T3, mGluR8//CaR*Gαqi5 (Homo sapiens, UniProt O00222); test: as above; settings: 100 μM, Xenopus laevis oocytes, holding −60 mV, FIG. 15
T3 construct: ID; NO; 41; expressed in transfected cells; host or cells: Xenopus laevis oocytes injected with fusion receptor cRNA
T3 sequence (O00222 with tags, fused parts or gaps): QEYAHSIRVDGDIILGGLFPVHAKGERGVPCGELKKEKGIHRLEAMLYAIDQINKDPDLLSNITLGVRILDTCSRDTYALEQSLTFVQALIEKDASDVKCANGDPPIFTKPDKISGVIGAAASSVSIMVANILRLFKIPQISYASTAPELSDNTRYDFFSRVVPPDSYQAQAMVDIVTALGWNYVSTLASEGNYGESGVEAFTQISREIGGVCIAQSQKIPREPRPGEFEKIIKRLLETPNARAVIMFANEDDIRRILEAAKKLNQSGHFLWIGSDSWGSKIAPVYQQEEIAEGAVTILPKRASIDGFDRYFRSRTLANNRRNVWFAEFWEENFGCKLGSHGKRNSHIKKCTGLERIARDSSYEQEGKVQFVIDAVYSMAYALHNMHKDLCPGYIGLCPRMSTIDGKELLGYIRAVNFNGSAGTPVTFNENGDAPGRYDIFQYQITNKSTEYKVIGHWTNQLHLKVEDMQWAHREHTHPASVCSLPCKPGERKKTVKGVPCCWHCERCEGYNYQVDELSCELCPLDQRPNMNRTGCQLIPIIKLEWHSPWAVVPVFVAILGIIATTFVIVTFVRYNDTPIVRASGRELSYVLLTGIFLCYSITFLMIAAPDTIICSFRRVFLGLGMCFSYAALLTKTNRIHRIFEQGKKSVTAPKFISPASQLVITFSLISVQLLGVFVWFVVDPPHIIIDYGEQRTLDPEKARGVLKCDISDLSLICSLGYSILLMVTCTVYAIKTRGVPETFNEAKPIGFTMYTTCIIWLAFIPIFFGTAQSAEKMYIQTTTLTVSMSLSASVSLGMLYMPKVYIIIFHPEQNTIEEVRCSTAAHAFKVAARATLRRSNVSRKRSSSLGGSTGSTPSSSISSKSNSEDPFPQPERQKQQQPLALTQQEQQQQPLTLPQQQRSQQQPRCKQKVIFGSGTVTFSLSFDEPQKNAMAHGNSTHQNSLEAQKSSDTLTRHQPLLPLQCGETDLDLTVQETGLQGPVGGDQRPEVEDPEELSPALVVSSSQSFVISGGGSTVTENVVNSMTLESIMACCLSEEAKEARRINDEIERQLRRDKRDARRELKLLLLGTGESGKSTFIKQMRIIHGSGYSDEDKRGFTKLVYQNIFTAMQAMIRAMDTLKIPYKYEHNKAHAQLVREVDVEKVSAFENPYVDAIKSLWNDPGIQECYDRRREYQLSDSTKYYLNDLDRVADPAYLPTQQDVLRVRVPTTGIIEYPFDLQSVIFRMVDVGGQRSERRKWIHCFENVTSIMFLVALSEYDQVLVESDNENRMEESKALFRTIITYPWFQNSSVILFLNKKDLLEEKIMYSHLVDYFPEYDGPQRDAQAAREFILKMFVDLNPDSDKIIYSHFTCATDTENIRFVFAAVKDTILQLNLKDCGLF
Procedure: as §1, §2, §3, §4

SMILES	receptor fusion activation, increase in calcium-activated chloride current (ICl) (CaR/mGluR2*Gqi5)	activation of the chimeric receptor detected by increases in the calcium-activated chloride current [1]	receptor fusion activation, increase in calcium-activated chloride current (ICl) (mGluR2//CaR*Gαqi5)	receptor fusion activation, increase in calcium-activated chloride current (ICl) (mGluR8//CaR*Gαqi5)
[Gd+3] [Gd^3+]	activated	reversible, oscillatory increases in the calcium-activated chloride current	–	–
N[C@@H](CCC(=O)O)C(=O)O [L-glutamate]	–	–	elicited a response	elicited a response
